Test results as given in patent EP0826686A2, “Tricyclic compounds, their production and use” (TAKEDA CHEMICAL INDUSTRIES, LTD., priority 1996, dated 1998).
Counter-ions that a name gives are not always drawn.

Tests used:
[1] = system: Human skin fibroblasts (Hs68); assay: PDGF-induced proliferation in Hs68 cells (3H-thymidine uptake); type: cell-based; conditions: PDGF-BB 5 ng/ml, 24 hours; for inhibition at 1 µM: Concentration 1x10^-6 M; for inhibition at 3 µM: Concentration 3x10^-6 M; for inhibition at 0.3 µM: Concentration 3x10^-7 M
Description: Experiments of PDGF-induced proliferation in Hs68 cells Method: Human skin fibroblasts (Hs68, Institute for Fermentation, Osaka) were seeded in 48-well plates precoated with collagen type I (Falcon) (25000 cells/well), and cultured for one day. Then, the cells were cultured in Dulbecco's modified Eagle's medium (high glucose) containing 0.1% bovine serum albumin for 48 hours. Fifteen (15) minutes after the addition of the drug, the cells were stimulated with 5 ng/ml of PDGF-BB (Becton Dickinson Labware) containing ^3H-thymidine (final concentration 0.4 mCi/ml) (Amersham). After 24 hours, the reaction was stopped with 7.5% trichloroacetic acid at 4°C and the plate was allowed to stand at 4°C for 30 minutes. The cells were washed with Ca^2+- and Mg^2+-free phosphate-buffered saline (PBS), after then 0.1% sodium dodecyl sulfate (SDS)/0.4N NaOH was added and the plate was allowed to stand at 37°C for 1 hour to lyze the cells. The whole content of each well was taken in a vial and neutralized with 1N HCl, and then toluene scintillator (Wako Pure Chemical Ind.) was added to each vial. After stirring, the amount of ^3H-thymidine incorporated in the cells was determined with a liquid scintillation counter. The cellular uptake of ^3H-thymidine was used as an indicator of cell proliferation. The effect of the drug on the PDGF-BB (5 ng/ml) uptake of ^3H-thymidine was expressed as % inhibition. […]

[2] = system: Glomerular mesangial cells; assay: Inhibition of the proliferation of mesangial cells (PDGF-BB stimulated, 3H-thymidine uptake); type: cell-based, Sprague-Dawley rats; conditions: Rattus norvegicus, Glomerular mesangial cell, 24 h, PDGF-BB 5 ng/ml, read-out: Proliferation inhibiting activity (% Inhibition); for inhibition at 1 µM: Dose 10^-6 M; for inhibition at 3 µM: Dose 3 x 10^-6 M
Description: Glomerular mesangial cells isolated from 4-week-old male Sprague-Dawley rats (Japan Clea) were cultured in a 24-well plate (Falcon) up to the subconfluence. The cells were subsequently cultured in Dulbecco's modified Eagle MEM containing 0.2% bovine serum albumin for 24 - 48 hours before addition of a drug substance. Fifteen minutes after the drug substance was added to the culture, the cells were allowed to react with 5 ng/ml of PDGF-BB (Becton Dickinson Labwere) for stimulation, simultaneously adding ^3H-Thymidine (final concentration 0.2 µ Ci/ml) (Amasham), for 24 hours. The reaction was blocked by adding 7.5 % TCA of 4°C. The mixture was allowed to stand at 4°C for 30 minutes. The cells were washed with phosphate buffered saline containing no Ca^2+ and Mg^2+. A 0.4N NaOH/0.1% sodium dodecyl sulfate (SDS) solution was added to the washed cells and the mixture was allowed to stand at 37°C for an hour to solubilize the cells. The whole qauntity was placed in a vial and neutralized with 1N HCl. Scintillator A (Wako Pure Chemicals) was added to this with stirring. The quantity of ^3H-Thymidine incorporated in the cells was measured by the liquid scintillation counter. The increase in the quantity of the incorporated ^3H-Thymidine was designated as the parameter of the cell proliferation. The inhibitory effect of a drug substance on the intake with PDGF-BB (5 ng/ml) was expressed as % inhibition (Table 1).

SHC rats = assay: Urinary protein excretion in SHC rats; type: in vivo, Spontaneously hypercholesterolemic rats; conditions: 1 mg/kg/day oral once daily
Source text: Experiments of urinary protein excretion in SHC rats Method: Spontaneously hypercholesterolemic rats (male, 7 weeks old) were given a drug suspended in 0.5% methylcellulose (100 cP) by oral administration once daily for 6 weeks. A control group was given 0.5% methylcellulose (100 cP) by the same route once daily. As a normal control group, Sprague-Dawley rats (SD rats) (male, 7 weeks old, CLEA Japan, Inc.) were given 0.5% methylcellulose (100 cP) orally once daily. Before the start of medication and at 2-weeks intervals after the first administration of drugs, urine was collected for twenty four hours and the total protein and albumin excreted in the urine were determined. The assay of total protein and albumin was carried out using the A/GB Test Wako (Wako Pure Chemical Ind.).

[3] = duration of administration 0 weeks (before start of medication)
[4] = duration of administration 2 weeks
[5] = duration of administration 4 weeks
[6] = duration of administration 6 weeks

O=c1c2cnc3cccc(n1CC1CCN(S(=O)(=O)C(F)(F)F)CC1)n32 [8(ii), 1,2-Dihydro-1-(1-trifluoromethanesulfonylpiperidin-4-ylmethyl)-1,4,7b-triazacyclopent[cd]inden-2-one]
inhibition at 1 µM [1]: 74.9%

O=C1c2cnc3cccc(n23)CN1CC1CCN(S(=O)(=O)C(F)(F)F)CC1 [11(iii), 4,5-Dihydro-4-(1-trifluoromethanesulfonylpiperidin-4-ylmethyl)-3H-1,4,8b-triazaacenaphthylen-3-one hydrochloride]
inhibition at 3 µM [1]: 59.2%

O=C1c2cnc3cccc(n23)CN1CCC1CCN(S(=O)(=O)C(F)(F)F)CC1 [12(ii), 4,5-Dihydro-4-[2-(1-trifluoromethanesulfonylpiperidin-4-yl)ethan-1-yl]-3H-1,4,8b-triazaacenaphthylen-3-one]
inhibition at 1 µM [1]: 96.6%

Cc1nc2cccc3nc(SCCC4CCN(S(=O)(=O)C(F)(F)F)CC4)c1n23 [25(ii), 3-Methyl-2-[2-(1-trifluoromethanesulfonylpiperidin-4-yl)ethan-1-yl]thio-1,4,7b-triazacyclopent[cd]indene]
inhibition at 0.3 µM [1]: 83.4%

Cc1nc2cccc3n(CCC4CCN(S(=O)(=O)C(F)(F)F)CC4)c(=O)c1n23 [Compound 3, 1,2-dihydro-3-methyl-1-[2-(1-trifluoromethanesulfonylpiperidin-4-yl)ethan-1-yl]-1,4,7b-triazacyclopent[cd]inden-2-one hydrochloride]
inhibition at 0.3 µM ([2]; Dose 3 x 10^-7 M): 39%
inhibition at 1 µM [2]: 91.1%

CC(C)(C)OC(=O)N1CCC(Cn2c(=O)c3cnc4cccc2n43)CC1 [Example 1, 1,2-Dihydro-1-(1-tert-butoxycarbonylpiperidin-4-ylmethyl)-1,4,7b-triazacyclopent[cd]inden-2-one]
inhibition at 3 µM [2]: 39.4%

CC(C)(C)OC(=O)N1CCC(CCn2c(=O)c3cnc4cccc2n43)CC1 [Example 2, 1,2-Dihydro-1-[2-(1-tert-butoxycarbonylpiperidin-4-yl)ethan-1-yl]-1,4,7b-triazacyclopent[cd]inden-2-one]
inhibition at 3 µM [2]: 40.1%
inhibition at 10 µM ([2]; Dose 10^-5 M): 58.3%
inhibition at 1 µM [2]: 11.1%

O=c1c2cnc3cccc(n1CCC1CCN(S(=O)(=O)C(F)(F)F)CC1)n32 [Example 9(ii), 1,2-dihydro-1-[2-(1-trifluoromethanesulfonylpiperidin-4-yl)ethan-1-yl]-1,4,7b-triazacyclopent[cd]inden-2-one]
Urinary albumin (SHC rats; [3]): 12.0 mg/day
Urinary total protein (SHC rats; [3]): 39.2 mg/day
Urinary albumin (SHC rats; [4]): 10.9 mg/day
Urinary total protein (SHC rats; [4]): 50.4 mg/day
Urinary albumin (SHC rats; [5]): 46.2 mg/day
Urinary total protein (SHC rats; [5]): 91.3 mg/day
Urinary albumin (SHC rats; [6]): 129.9 mg/day
Urinary total protein (SHC rats; [6]): 199.4 mg/day
inhibition at 0.3 µM [1]: 94.9%

O=C1c2cccc3ncc(n23)CN1CCC1CCN(S(=O)(=O)C(F)(F)F)CC1 [Example 19, 4,5-Dihydro-4-[2-(1-trifluoromethanesulfonylpiperidin-4-yl)ethan-1-yl]-3H-1,4,8b-triazaacenaphthylen-5-one]
inhibition at 1 µM [1]: 72.8%

Cc1nc2cccc3n(CCCC4CCN(S(=O)(=O)C(F)(F)F)CC4)c(=O)c1n23 [Example 23, 1,2-Dihydro-3-methyl-1-[3-(1-trifluoromethanesulfonylpiperidin-4-yl)propan-1-yl]-1,4,7b-triazacyclopent[cd]inden-2-one]
inhibition at 0.3 µM [1]: 44.6%

Cc1nc2cccc3n(CCC4CCN(C(=O)C(F)(F)C(F)(F)F)CC4)c(=O)c1n23 [Example 27, 1,2-Dihydro-3-methyl-1-[2-(1-pentafluoropropionylpiperidin-4-yl)ethan-1-yl]-1,4,7b-triazacyclopent[cd]inden-2-one]
inhibition at 1 µM [1]: 62.7%

Cc1nc2cccc3n(C[C@H]4CC[C@H](CNC(=O)C(F)(F)F)CC4)c(=O)c1n23 [Example 29, 1,2-Dihydro-3-methyl-1-[trans-4-(trifluoroacetylamino)methyl-1-cyclohexylmethyl]-1,4,7b-triazacyclopent[cd]inden-2-one]
inhibition at 3 µM [1]: 76.1%

Cc1ccc(S(=O)(=O)NC[C@H]2CC[C@H](Cn3c(=O)c4c(C)nc5cccc3n54)CC2)cc1 [Example 32, 1,2-Dihydro-3-methyl-1-[trans-4-(4-methylphenylsulfonylamino)methyl-1-cyclohexylmethyl]-1,4,7b-triazacyclopent[cd]inden-2-one]
inhibition at 1 µM [1]: 80.3%
